In publication PMC13179060, “The role of ATP synthase subunit e (ATP5I) in mediating the metabolic and antiproliferative effects of metformin in cancer cells” (eLife, 2026):

T1: ATP synthase subunit e (ATP5I) (Homo sapiens, UniProt P56385)
T1 construct: gene ATP5ME; full-length human ATP5I, N-terminal 6x-His-tagged, expressed in E. coli (mainly oligomers, mostly decamers)
T1 sequence (P56385 1-69): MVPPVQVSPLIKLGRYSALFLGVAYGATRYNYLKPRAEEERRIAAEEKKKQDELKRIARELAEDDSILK


Assays:
[1] = molecular target: T1, ATP synthase subunit e (ATP5I); experiment: SPR, BFB immobilized on streptavidin chip, recombinant ATP5I as analyte, steady-state fit; supported by streptavidin pull-down and immunoblot; format: binding
[2] = molecular target: the molecule itself; experiment: SEC; gel filtration of purified rATP5I (legend: Superose 12 10/300 GL for the profile, Superose 6 10/300 GL for the calibration with thyroglobulin, γ-globulin, myoglobin and vitamin B12)

Row | Kd [1] [µM] | Molecule | stoichiometry N [2]
1 | ~11.1 | N=C(N)NC(=N)NCCCCCCNC(=O)CCCCC1SCC2NC(=O)NC21 (centres unmarked) [compound 3, BFB] | 
2 |  | N-terminal 6x-His-tagged ATP5I (ATP synthase subunit e), recombinant (natural protein, human, UniProt P56385 1-69, looked up, The vector is pET-TEV; The protein was extracted under denaturing conditions and brought back into native buffer on the column; also called rATP5I; recombinant ATP5I; not shown: His6, N-terminal, kept) MVPPVQVSPLIKLGRYSALFLGVAYGATRYNYLKPRAEEERRIAAEEKKKQDELKRIARELAEDDSILK | 10
